Assay results published in patent US20150315188A1, “COMPOUNDS AND METHODS FOR TREATMENT OF HYPERTENSION” (MEDIVATION TECHNOLOGIES, INC., priority 2012, published 2015).

What was measured:
Parameters in all cases: purchased Milipore (Millipore)
[1] = target: T1, Human adrenergic α2B receptor (Homo sapiens, UniProt P18089); assay: Radioligand binding, adrenergic α2B (Protocol Group B); conditions: Protocol Group B; for Percentage inhibition of ligand binding, Adrenergic α2B (10 nM) / inhibition at 0.01 µM: 10 nM compound; for Percentage inhibition of ligand binding, Adrenergic α2B (10 nM): 0.01 µM; for Percentage inhibition of ligand binding, Adrenergic α2B (30 nM) / inhibition at 0.03 µM: 30 nM compound; for Percentage inhibition of ligand binding, Adrenergic α2B (30 nM): 0.03 µM; for Percentage inhibition of ligand binding, Adrenergic α2B (0.1 μM) / inhibition at 0.1 µM: 0.1 μM compound; for inhibition at 0.01 µM: read-out: Percentage inhibition of ligand binding, Adrenergic α2B (10 nM); for inhibition at 0.03 µM: read-out: Percentage inhibition of ligand binding, Adrenergic α2B (30 nM); for inhibition at 0.1 µM: read-out: Percentage inhibition of ligand binding, Adrenergic α2B (0.1 μM)
T1 sequence (P18089 1-450): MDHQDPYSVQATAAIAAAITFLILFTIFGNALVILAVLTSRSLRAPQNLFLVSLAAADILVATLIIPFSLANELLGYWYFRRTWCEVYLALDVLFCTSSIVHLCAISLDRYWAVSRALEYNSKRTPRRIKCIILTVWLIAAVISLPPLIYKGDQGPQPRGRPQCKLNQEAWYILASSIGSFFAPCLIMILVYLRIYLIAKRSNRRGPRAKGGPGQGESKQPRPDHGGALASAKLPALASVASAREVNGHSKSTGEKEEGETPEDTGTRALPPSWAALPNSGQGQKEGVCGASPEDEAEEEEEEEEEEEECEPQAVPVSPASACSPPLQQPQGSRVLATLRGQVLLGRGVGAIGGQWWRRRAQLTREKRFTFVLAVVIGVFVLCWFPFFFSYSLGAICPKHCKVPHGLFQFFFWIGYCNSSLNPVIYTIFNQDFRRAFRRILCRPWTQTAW
Method: To evaluate the activity of compounds in radioligand binding assays, Human adrenergic α2B receptor obtained from recombinant cell membrane from Milipore. Binding experiments were carried out in Tris-HCl buffer (50 mM Tris-HCl buffer, pH 7.4, 5 mM Mgcl2, 1 mM Cacl2, 0.2% BSA) as recommended by Milipore. […] Non-specific binding was estimated in the presence of 10 μM Rauwolscine. […] Compounds were screened at various concentrations, using 1% DMSO as vehicle. Biochemical assay results are presented as the percent Inhibition of specific binding in Table B1b, or estimated Ki values in Table B1c.

[2] = target: T2, Human adrenergic α2A receptor (Homo sapiens, UniProt P08913); assay: Radioligand binding, adrenergic α2A (Protocol Group B); conditions: Protocol Group B; for Percentage inhibition of ligand binding, Adrenergic α2A (0.1 μM) / inhibition at 0.1 µM: 0.1 μM compound; for Percentage inhibition of ligand binding, Adrenergic α2A (0.3 μM) / inhibition at 0.3 µM: 0.3 μM compound; for inhibition at 0.1 µM: read-out: Percentage inhibition of ligand binding, Adrenergic α2A (0.1 μM); for inhibition at 0.3 µM: read-out: Percentage inhibition of ligand binding, Adrenergic α2A (0.3 μM)
T2 sequence (P08913 1-465): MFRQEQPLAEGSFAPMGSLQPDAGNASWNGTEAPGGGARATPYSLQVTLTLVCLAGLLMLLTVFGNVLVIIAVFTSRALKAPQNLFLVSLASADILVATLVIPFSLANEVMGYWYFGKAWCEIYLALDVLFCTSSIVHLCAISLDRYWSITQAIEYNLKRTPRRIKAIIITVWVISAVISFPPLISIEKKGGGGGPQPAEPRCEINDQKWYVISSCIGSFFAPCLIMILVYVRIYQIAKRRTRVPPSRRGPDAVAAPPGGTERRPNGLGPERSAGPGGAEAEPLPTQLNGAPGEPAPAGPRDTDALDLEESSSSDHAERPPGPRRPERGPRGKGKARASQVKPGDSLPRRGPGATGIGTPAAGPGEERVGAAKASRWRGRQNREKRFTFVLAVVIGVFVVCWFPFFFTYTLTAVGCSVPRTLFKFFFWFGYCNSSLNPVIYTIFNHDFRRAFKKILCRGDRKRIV
Method: To evaluate the activity of compounds in radioligand binding assays, Human adrenergic α2A receptor obtained from recombinant cell membrane from Milipore. Binding experiments were carried out in Tris-HCl buffer (50 mM Tris-HCl buffer, pH 7.4, 5 mM Mgcl2, 1 mM Cacl2, 0.2% BSA) as recommended by Milipore. Compounds were incubated with 2 nM [^3H]MK-912 for 60 min at 25° C. Non-specific binding was estimated in the presence of 10 μM Rauwolscine. Receptor proteins were harvested on 0.33% PEI(poly-ethylenemine) soaked GFC filter mat, the specifically bound [^3H]MK-912 were counted to determine total binding. Compounds were screened at various concentrations, using 1% DMSO as vehicle. percent inhibition of specific binding was determined. Biochemical assay results are presented as the percent Inhibition of specific binding in Table B1b, or estimated Ki values in Table B1c.

[3] = target: T3, Human adrenergic α1B receptor (Homo sapiens, UniProt P35368); assay: Radioligand binding, adrenergic α1B (Protocol Group B); conditions: Protocol Group B; for Percentage inhibition of ligand binding, Adrenergic α1B (0.1 μM) / inhibition at 0.1 µM: 0.1 μM compound; for Percentage inhibition of ligand binding, Adrenergic α1B (0.3 μM) / inhibition at 0.3 µM: 0.3 μM compound; for inhibition at 0.1 µM: read-out: Percentage inhibition of ligand binding, Adrenergic α1B (0.1 μM); for inhibition at 0.3 µM: read-out: Percentage inhibition of ligand binding, Adrenergic α1B (0.3 μM)
T3 sequence (P35368 1-520): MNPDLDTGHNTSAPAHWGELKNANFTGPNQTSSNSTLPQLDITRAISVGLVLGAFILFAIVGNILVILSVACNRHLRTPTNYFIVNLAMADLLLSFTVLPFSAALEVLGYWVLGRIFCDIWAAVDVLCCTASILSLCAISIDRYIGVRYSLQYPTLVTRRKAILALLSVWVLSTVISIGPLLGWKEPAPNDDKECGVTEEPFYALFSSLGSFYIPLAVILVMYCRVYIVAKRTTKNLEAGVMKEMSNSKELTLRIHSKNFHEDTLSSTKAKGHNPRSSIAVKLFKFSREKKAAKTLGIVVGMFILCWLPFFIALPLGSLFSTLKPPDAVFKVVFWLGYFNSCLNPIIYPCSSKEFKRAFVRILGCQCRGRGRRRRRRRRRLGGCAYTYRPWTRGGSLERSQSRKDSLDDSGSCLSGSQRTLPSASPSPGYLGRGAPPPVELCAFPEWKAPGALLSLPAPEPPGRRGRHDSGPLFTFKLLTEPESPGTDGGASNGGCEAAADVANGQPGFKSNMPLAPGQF
Method: To evaluate the activity of compounds in radioligand binding assays, Human adrenergic α1B receptor obtained from recombinant cell membrane from Milipore. Binding experiments were carried out in Tris-HCl buffer (50 mM Tris-HCl buffer, pH 7.4, 10 mM Mgcl2, 1 mM EDTA) as recommended by Milipore. Compounds were incubated with 0.3 nM [^3H]Prazosin for 60 min at 25° C. Non-specific binding was estimated in the presence of 10 μM prazosin. Receptor proteins were harvested on 0.33% PEI(poly-ethylenemine) soaked GFC filter mat, the specifically bound [^3H]Prazosin were counted to determine total binding. Compounds were screened at various concentrations, using 1% DMSO as vehicle. percent inhibition of specific binding was determined. Biochemical assay results are presented as the percent Inhibition of specific binding in Table B1b, or estimated Ki values in Table B1c.

Structure (SMILES)	Percentage inhibition of ligand binding, Adrenergic α2B (10 nM) [1] [%]	Percentage inhibition of ligand binding, Adrenergic α2B (30 nM) [1] [%]	Percentage inhibition of ligand binding, Adrenergic α2A (0.1 μM) [2] [%]	Percentage inhibition of ligand binding, Adrenergic α2A (0.3 μM) [2] [%]	Percentage inhibition of ligand binding, Adrenergic α1B (0.1 μM) [3] [%]	Percentage inhibition of ligand binding, Adrenergic α1B (0.3 μM) [3] [%]	Percentage inhibition of ligand binding, Adrenergic α2B (0.1 μM) [1] [%]	Percentage inhibition of ligand binding, Adrenergic α1B (0.1 μM) ([3]; 0.1 µM) [%]	inhibition at 0.01 µM [1] [%]	inhibition at 0.03 µM [1] [%]	inhibition at 0.1 µM [1] [%]	inhibition at 0.1 µM [2] [%]	inhibition at 0.3 µM [2] [%]	inhibition at 0.1 µM [3] [%]	inhibition at 0.3 µM [3] [%]
Cc1ccc2c(c1)c1c(n2CC(C)(O)c2cnc3ccccc3c2)CCN(C)C1 (single isomer, unassigned) [32b]	0	14	−5	9	−1	13									
Cc1ccc2c(c1)c1c(n2CC(C)(O)c2cccnc2)CCN(CC(F)F)C1 (stereo not drawn) [compound 58, 1-(2-(2,2-difluoroethyl)-8-methyl-3,4-dihydro-1H-pyrido[4,3-b]indol-5(2H)-yl)-2-(pyridin-3-yl)propan-2-ol]									-10	-4	-2	-6	-1	-6	-4
CC(O)(Cn1c2c(c3cc(Cl)cc(F)c31)CN1CCCC1C2)c1ccncc1 (single isomer, unassigned) [86a]	−2		−4			30				23			11	2	
Cc1ccc2c(c1)c1c(n2CC(O)c2ccc(C(=O)NC3CC3)nc2)CCN(C)C1 (stereo not drawn) [compound 55, N-cyclopropyl-5-(2-(2,8-dimethyl-3,4-dihydro-1H-pyrido[4,3-b]indol-5(2H)-yl)-1-hydroxyethyl)picolinamide]									6	24	50	-4	3	19	44
Cc1ccc2c(c1)c1c(n2CC(C)(O)c2ccc(F)cc2)CN2CCC1C2 (single isomer, unassigned) [134a]		−8	−5					−6							
Cc1ccc2c(c1)c1c(n2CC(O)c2ccncc2)CNC2CCCC12 (single isomer, unassigned) [34d]	14	2	−2	−1		22	25	6							
Cc1cc(F)cc2c3c(n(CC(C)(O)c4ccncc4)c12)CCN1CCCC31 (single isomer, unassigned) [77b]	6	12	5	9		14		−3							
Cc1cc(Br)c2c(c1)c1c(n2CC(O)c2ccncc2)CCN2CCCC12 (single isomer, unassigned) [145b]		100	89					68							

More lines, now with the values ahead:

Percentage inhibition of ligand binding, Adrenergic α2B (10 nM) [1] [%]	Percentage inhibition of ligand binding, Adrenergic α2B (30 nM) [1] [%]	Percentage inhibition of ligand binding, Adrenergic α2A (0.1 μM) [2] [%]	Percentage inhibition of ligand binding, Adrenergic α2A (0.3 μM) [2] [%]	Percentage inhibition of ligand binding, Adrenergic α1B (0.1 μM) [3] [%]	Percentage inhibition of ligand binding, Adrenergic α1B (0.3 μM) [3] [%]	Percentage inhibition of ligand binding, Adrenergic α2B (0.1 μM) [1] [%]	Percentage inhibition of ligand binding, Adrenergic α1B (0.1 μM) ([3]; 0.1 µM) [%]	inhibition at 0.01 µM [1] [%]	inhibition at 0.03 µM [1] [%]	inhibition at 0.1 µM [1] [%]	inhibition at 0.1 µM [2] [%]	inhibition at 0.3 µM [2] [%]	inhibition at 0.1 µM [3] [%]	inhibition at 0.3 µM [3] [%]	Structure (SMILES)
0	7	−7	8		12	22	2								Cc1cc(F)cc2c3c(n(CC(C)(O)c4ccncc4)c12)CC1CCCN1C3 (single isomer, unassigned) [78b]
25	55	3	32		24	84	2								CC(O)(Cn1c2c(c3cc(Cl)cc(F)c31)CN1CCCC1C2)c1cccnc1 (single isomer, unassigned) [63a]
0	1	8	6		9		3								CC(O)(Cn1c2c(c3cc(F)cc(Cl)c31)C1CCCN1CC2)c1cccnc1 (single isomer, unassigned) [89b]
								6	8	38	-10	4	-12	-1	Cc1ccc2c(c1)c1c(n2CC(C)(O)c2ccc(C(=O)N(C)CC3CC3)nc2)CCN(C)C1 (stereo not drawn) [compound 33, N-(cyclopropylmethyl)-5-(1-(2,8-dimethyl-3,4-dihydro-1H-pyrido[4,3-b]indol-5(2H)-yl)-2-hydroxypropan-2-yl)-N-methylpicolinamide]
